We go through one molecule from US6407064B2, “Aminoalcohol derivative and medicament comprising the same” (Seikagaku Corporation, priority 1999, dated 2002).

Data set [1] relates to MAPkinase (mitogen-activated protein kinase). The conditions noted are these: Biochem. Biophys. Res. Commun. 237: 595-600 (1997); cited from earlier work.
Data set [2] is described as follows: Tissue distribution: concentration in plasma and skeletal muscle after oral or intravenous administration. The conditions noted are these: male, Wistar, plasma, rat. It counts as in vivo. The protocol: Tissue distribution of the compound in Example 19 was compared with that of L-PDMP using 6-8 week old Wistar male rats.
As oral administration, a physiological saline containing 20 mg/ml of a test substance was administered at 100 mg/5 ml/kg, and as intravenous administration, a physiological saline containing 1.25 mg/ml of a test substance was administered to the cervical vein at 5 mg/4 ml/kg.
After the predetermined time had passed since the above administration, blood was collected from the rat cervical vein, a 3.8% sodium citrate solution was added thereto at 1/10 volume, followed by centrifugation at 3,000 rpm for 15 minutes to obtain the supernatant as a plasma sample.
Also, after the predetermined time had passed since the above administration, the skeletal muscle was collected from the femoral region of both hind legs, ice water was added thereto at 4 ml/g tissue, followed by homogenization, and the same volume of acetonitrile was added thereto, followed by vigorously stirring and centrifugation at 4000 rpm for 10 minutes to obtain the supernatant as a skeletal muscle sample.
The plasma and skeletal muscle samples were extracted by OASIS HLB solid phase extraction column (manufactured by Waters), and the concentration of the test compound in the plasma and the muscle was determined by high performance liquid chromatography (HPLC). The conditions of HPLC analysis were as follows:
Detection wavelength: 218 nm
Column: DAISO PACK SP-120-5-ODS-BP
Column temperature: 40° C.
Mobile phase: 0.1% trifluoroacetic acid solution:methanol=36:64 (for L-PDMP); 0.1% trifluoroacetic acid solution:methanol=48:52 (for the compound in Example 19)
The concentrations in the plasma and skeletal muscle of the compound in Example 19 and L-PDMP after the predetermined time has been passed since the administration of the test compounds are shown in Tables 4-6 below. The values are the mean values of at least two test samples. Specifically, Table 4, Table 5, and Table 6 show the concentrations in the plasma after the oral administration of 100 mg/kg, the concentrations in the skeletal muscle after the oral administration of 100 mg/kg, and the concentrations in the plasma after the intravenous administration of 5 mg/kg, respectively.

A further data set relates to synapse formation. The conditions noted are these: WO 95/05177; cited from earlier work.

For the molecule `CCCCCCCCCC(=O)N[C@@H](CN1CCOCC1)[C@@H](O)c1ccccc1` [L-PDMP, (1S,2S)-1-phenyl-2-decanoylamino-3-morpholino-1-propanol, reference compound], the “effect on MAPkinase” value in data set [1] is on record as “activates MAPkinase for a long period of time”. The concentration at 10 min in data set [2] (intravenous administration of 5 mg/kg, 10 min) amounted to 1030 ng/mL. This molecule also came in with a concentration at 25 min in data set [2] (intravenous administration of 5 mg/kg, 25 min) of 620 ng/mL. Also, in data set [2] (oral administration of 100 mg/kg, 5 min), the concentration at 5 min stood at 10 ng/mL. Moreover, the concentration at 15 min in data set [2] (oral administration of 100 mg/kg, 15 min) amounted to 1360 ng/mL. In addition, the concentration at 30 min in data set [2] (oral administration of 100 mg/kg, 30 min) was 2100 ng/mL. This molecule showed a concentration at 60 min in data set [2] (oral administration of 100 mg/kg, 60 min) of 1440 ng/mL. The “effect on synapse formation” value in the data set with synapse formation was “effect of accelerating synapse formation”.
